Where two headings read alike, the source gives them in different places. Square brackets hold non-standard residues; d marks the D form. Ends that are not written are not given here. Peptide text beside a SMILES is read from it. * marks the point of attachment. Dolaproine = CO[C@@H]([C@@H]1CCCN1)[C@@H](C)C(=O)O; Dil = CC[C@H](C)[C@H](NC)[C@@H](CC(=O)O)OC; X1 = C[C@@H](N*)[C@@H](O)c1ccccc1; NMeV = CN[C@H](C(=O)O)C(C)C

One experiment relates to A431 cells. The experiment can be described thus: In vitro cytotoxicity (SRB), A431. The experiment is classed as cell-based. Here is the method:
(§1) Cells were cultured to 80% confluency in T75 culture flasks using DMEM as growth medium, respectively. The cells were seeded onto 96 well plates and grown for 24 h to reach 50% confluency.
(§2) At the end of the incubation period, the cells were fixed using 10% trichloroacetic acid, followed by washing with distilled water and drying. The cellular proteins were stained using 50 μL of 0.4% Sulforhodamine B (SRB) in 1% acetic acid. Unbound SRB was washed with 1% acetic acid and the plates were dried overnight. The cell bound SRB was then solubilized using 200 μL of 10 mM unbuffered tris base solution. SRB absorbance was measured at 560 nm wavelength using a plate reader. The percent viabilities of cells were plotted as a function of log concentration and data was analyzed in GraphPad Prism Version 5.0 software (GraphPad Software Inc, CA, USA) using nonlinear-regression curve fit (variable slope four parameter equation).

The next experiment has as its system MDA MB 468 cells. The experiment can be described thus: In vitro cytotoxicity (SRB), MDA MB 468. The experiment is classed as cell-based, human. Here is the method: as §1, §2
The next experiment relates to HEK 293 cells. Briefly: In vitro cytotoxicity (SRB), HEK 293. The experiment is classed as cell-based, human. How it is done:
as §1, §2

For experiment [1], the target named is EGFR recombinant human protein (Homo sapiens, UniProt P00533). Briefly: Surface plasmon resonance, EGFR as immobilized surface. Type of experiment: binding. To be noted: SPR, 25 °C, PBS with 0.01% Tween 20 pH 7.4. How it is done:
All experiments were carried out at 25 °C.
For orientation: In SPR one partner is held on a chip, and binding of the other changes the refractive index at the surface.

For experiment [2], the target named is bovine serum albumin (BSA) (Bos taurus, UniProt P02769). As to conditions: pH 7.4.
bovine serum albumin (BSA), sequence (P02769 25-607): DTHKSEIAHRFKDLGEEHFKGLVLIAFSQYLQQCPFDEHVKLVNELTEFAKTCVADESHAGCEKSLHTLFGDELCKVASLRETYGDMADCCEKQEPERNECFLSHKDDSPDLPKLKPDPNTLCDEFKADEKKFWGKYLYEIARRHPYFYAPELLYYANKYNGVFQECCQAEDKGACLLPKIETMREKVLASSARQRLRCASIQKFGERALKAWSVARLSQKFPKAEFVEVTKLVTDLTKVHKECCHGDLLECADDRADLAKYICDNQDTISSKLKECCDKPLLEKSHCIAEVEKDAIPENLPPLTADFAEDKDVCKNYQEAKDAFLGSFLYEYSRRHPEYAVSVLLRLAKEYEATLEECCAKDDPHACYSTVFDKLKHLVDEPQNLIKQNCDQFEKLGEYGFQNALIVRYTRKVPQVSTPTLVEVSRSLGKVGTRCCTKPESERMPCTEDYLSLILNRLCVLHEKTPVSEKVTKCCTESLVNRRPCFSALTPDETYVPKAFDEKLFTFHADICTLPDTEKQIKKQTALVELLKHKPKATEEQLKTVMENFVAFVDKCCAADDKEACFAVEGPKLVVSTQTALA
Procedure: Surface plasmon resonance (SPR) studies were conducted using the Dual Channel SPR Spectrometer SPR7000DC (Reichert Technologies, New York, USA) to determine the binding affinity of peptides to EGFR protein. All experiments were carried out at 25 °C. Phosphate buffer saline (PBS) with 0.01% Tween 20 (pH7.4) was filtered and thoroughly degassed before use. EGFR (20 µg/mL) recombinant human protein and bovine serum albumin (BSA 20 µg/mL) were covalently attached to the left channel of 500,000 Da carboxymethylated dextran sensor chips using 1-ethyl-3-(3-dimethylaminopropyl)-carbodiimide (EDC) and N-hydroxysuccinimide (NHS) chemistry. The chips were then blocked by passing ethanolamine for 8 minutes at a rate of 10 µL/min.
All peptides were injected as soluble analytes in PBS with 0.01% Tween 20 at different concentrations with an injection speed at 15 µL/min. […] The bound surface was regenerated by sequential injections of 10 mM glycine in PBS (pH 2.5).
The sensorgrams from SPR were globally treated using Scrubber 2 software (BioLogic Software Pty Ltd, Australia), and kinetic constants kon and koff were determined by global fitting analyses of the titration curves using the 1:1 Lagmurian interaction model considering the mass transport. The equilibrium dissociation constant (KD) was calculated from the koff/kon ratio.

EGFR recombinant human protein, sequence (P00533 25-645 limits assumed): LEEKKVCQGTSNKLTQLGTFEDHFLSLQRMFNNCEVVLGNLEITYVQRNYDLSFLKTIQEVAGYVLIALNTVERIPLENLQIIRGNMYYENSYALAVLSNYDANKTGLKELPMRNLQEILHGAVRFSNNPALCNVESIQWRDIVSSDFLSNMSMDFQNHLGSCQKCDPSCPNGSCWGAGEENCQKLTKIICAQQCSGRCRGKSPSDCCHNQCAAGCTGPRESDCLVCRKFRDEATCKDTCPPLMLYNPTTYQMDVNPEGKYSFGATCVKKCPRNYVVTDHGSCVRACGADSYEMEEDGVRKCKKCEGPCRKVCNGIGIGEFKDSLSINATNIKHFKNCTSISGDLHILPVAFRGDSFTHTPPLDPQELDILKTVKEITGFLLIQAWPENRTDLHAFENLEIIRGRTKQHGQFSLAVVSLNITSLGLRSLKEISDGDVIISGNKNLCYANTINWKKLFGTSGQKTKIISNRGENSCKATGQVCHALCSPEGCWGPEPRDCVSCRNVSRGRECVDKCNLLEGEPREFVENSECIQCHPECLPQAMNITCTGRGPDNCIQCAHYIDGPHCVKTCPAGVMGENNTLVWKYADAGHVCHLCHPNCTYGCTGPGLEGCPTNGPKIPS

As to `CC[C@H](C)[C@@H]([C@@H](CC(=O)N1CCC[C@H]1[C@H](OC)[C@@H](C)C(=O)N[C@H](C)[C@@H](O)c1ccccc1)OC)N(C)C(=O)[C@@H](NC(=O)[C@@H](NC)C(C)C)C(C)C` [MMAE, Monomethyl Auristatin E, reference compound] (H-[NMeV]V[Dil][Dolaproine]-X1), the IC50 (as a rule, the point on the concentration scale where inhibition reaches its midpoint) in the experiment with A431 cells (SRB, 72 hours at 37 °C, 0.00001 to 10000 nM, read-out: IC50 (A431)) stood at 0.0246 nM; with MDA MB 468 cells (SRB, 72 hours at 37 °C, 0.00001 to 10000 nM, read-out: IC50 (MDA MB 468)) it was 0.0117 nM; with HEK 293 cells (SRB, 72 hours at 37 °C, 0.00001 to 10000 nM, read-out: IC50 (HEK 293)) it was 0.0626 nM.
In the case of SGEWAYDGYEPNFG [Pep25], in experiment [1], the “KD EGFR / binding to EGFR, no value” is recorded as “did not bind”.
As for WSGENGPGFYDYEA [Pep11], the IC50 in the experiment on A431 cells (72 h) was found to be 388 nM; with MDA MB 468 cells (72 h) it was 420 nM; in the experiment with HEK 293 cells (72 h) it was 1040 nM. In addition, in experiment [2], the “KD BSA / binding to BSA, no value” was “did not show binding”.
